This passage reports IC50 and Ki results from patent US5486511A, “4-amino-17β-(cyclopropyloxy)androst-4-en-3-one, 4-amino-17β-(cyclopropylamino)androst-4-en-3-one and related compounds as C17-20 lyase and 5α-reductase” (Merrell Dow Pharmaceuticals Inc., priority 1994, dated 1996).

The experiment concerns the target T1, cynomolgus monkey 5α-reductase (Macaca fascicularis, UniProt Q28892).
T1 construct: microsomes were isolated from cynomolgus monkey prostate tissue; from tissue; host or cells: cynomolgus monkey prostate microsomes
T1 sequence (Q28892 1-254): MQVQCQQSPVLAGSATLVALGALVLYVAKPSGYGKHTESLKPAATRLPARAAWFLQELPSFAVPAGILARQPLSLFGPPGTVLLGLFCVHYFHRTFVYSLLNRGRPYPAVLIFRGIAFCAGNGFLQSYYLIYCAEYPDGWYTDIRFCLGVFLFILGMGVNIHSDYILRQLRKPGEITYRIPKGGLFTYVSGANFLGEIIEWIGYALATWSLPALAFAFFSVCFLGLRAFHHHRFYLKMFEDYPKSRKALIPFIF
Nature of the experiment: Inhibition of cynomolgus monkey prostatic 5α-reductase (prostate microsomes). The format is biochemical. The note with it: for IC50: testosterone at Km level. The protocol:
The activity of the present compounds as inhibitors of steroid 5α-reductase was determined using microsomal preparations of the 5α-reductase enzyme from laboratory prostate tissue. Specifically, microsomes were isolated from cynomolgus monkey prostate tissue. Protein concentration of the microsomal preparations was determined prior to use of the samples. Individual assays of cynomolgus monkey prostatic 5α-reductase activity contained 0.1M potassium phosphate-sodium citrate buffer (K-Na buffer, 1:1), pH 5.6, 0.1% bovine serum albumin (w/v), 1.0 mM sodium EDTA, 7 to 96 μg of microsomal protein, 1.0 mM NADPH, 5.0 mM glucose-6-phosphate, 1 IU/mL glucose-6 -phosphate dehydrogenase, [1,2-^3 H]-testosterone (0.15 μCi), unlabeled testosterone to yield the desired concentration of substrate, and inhibitor which was dissolved in dimethyl sulfoxide (DMSO) then diluted in K-Na buffer to yield a final assay concentration of 0.1% (v/v) DMSO. The same buffer and DMSO without inhibitor were used in control assays. Background radioactivity was determined from assays containing all components except enzyme. Assays were performed in duplicate. The reaction was initiated by the addition of testosterone and incubated for 20 minutes at 25° C. in a Dubnoff® shaker incubator. Compound to be tested for inhibition was added simultaneously with testosterone. The total volume of the assay was 100 μL.
The 5α-reductase reactions were terminated by the addition of 5 mL chloroform-methanol (2:1) and 0.9 mL water. The carrier steroids were added in the form of 2.5 μg each of testosterone, dihydrotestosterone, and 3,17-androstanediol. […]

Molecules are shown by their SMILES.

The IC50 is the point on the concentration scale where inhibition reaches its midpoint. On to `C[C@]12CC[C@H]3[C@@H](C=CC4=C(N)C(=O)CC[C@@]43C)[C@@H]1CC[C@@H]2OC1CC1` [Compound 1, 4-Amino-17β-(cyclopropyloxy)androsta-4,6-dien-3-one], for which inhibition was half-maximal at 2.8 nM (IC50).
As a reminder, the Ki is a measure of affinity in units of concentration, obtained from inhibition or displacement. `C[C@]12CC[C@H]3[C@@H](CCC4=C(N)C(=O)CC[C@@]43C)[C@@H]1CC[C@@H]2OC1CC1` [Compound 2, 4-Amino-17β-(cyclopropyloxy)androst-4-en-3-one] showed an IC50 of 7.4 nM. For the same compound, affinity (testosterone 0.5 Km to 8 Km) was put at a Ki of 7.8 ± 0.7 nM.
